Assay results reported in patent US20090191253A2 (Creabilis Therapeutics S.P.A., priority 2005, published 2009).

Assays:
[1] = target: T1, ARG (Homo sapiens, UniProt P42684); assay: Kinase inhibition profiling ARG (ELISA); format: biochemical; note: ATP 5 µM
T1 construct: made in house; host or cells: baculovirus expression system
Protocol: (§1) Each test compound was weighed and dissolved in DMSO to make 1 mM stock solution. The stock solution was diluted with DMSO to achieve 20 μM. The compound solution was diluted with the assay buffer to achieve 0.8 μM.

[2] = target: T2, ALK (Homo sapiens, UniProt Q9UM73); assay: Kinase inhibition profiling ALK (ELISA); format: biochemical
T2 construct: Cytoplasmic domain of human ALK [1089-1620; His (N, cleaved yes); made in house; host or cells: baculovirus expression system
Protocol: as §1

[3] = target: T3, EGFR (Homo sapiens, UniProt P00533); assay: Kinase inhibition profiling EGFR (ELISA); format: biochemical; note: ATP 5 µM
T3 construct: Cytoplasmic domain of human EGFR [669-1210 amino; made in house; host or cells: baculovirus expression system
Protocol: as §1

[4] = target: T4, HER4 (Homo sapiens, UniProt Q15303); assay: Kinase inhibition profiling HER4 (ELISA); format: biochemical
T4 construct: Cytoplasmic domain of human HER4 [676-1308 amino; made in house; host or cells: baculovirus expression system
Protocol: as §1

[5] = target: T5, IGF1R (Homo sapiens, UniProt P08069); assay: Kinase inhibition profiling IGF1R (ELISA); format: biochemical
T5 construct: Cytoplasmic domain of human IGF1R [959-1367 amino; made in house; host or cells: baculovirus expression system
Protocol: as §1

[6] = target: T6, JAK1 (Homo sapiens, UniProt P23458); assay: Kinase inhibition profiling JAK1 (ELISA); format: biochemical
T6 construct: Kinase domain (KD) of human JAK1 [838-1142 amino; made in house; host or cells: baculovirus expression system
Protocol: as §1

[7] = target: T7, JAK3 (Homo sapiens, UniProt P52333); assay: Kinase inhibition profiling JAK3 (ELISA); format: biochemical; note: ATP 5 µM
T7 construct: Kinase domain (KD) of human JAK3 [795-1124 amino; made in house; host or cells: baculovirus expression system
Protocol: as §1

[8] = target: T8, TYK2 (Homo sapiens, UniProt P29597); assay: Kinase inhibition profiling TYK2 (ELISA); format: biochemical
T8 construct: Kinase domain (KD) of human TYK2 [871-1187 amino; made in house; host or cells: baculovirus expression system
Protocol: as §1

[9] = target: T9, FMS(CSFR) (Homo sapiens, UniProt P07333); assay: Kinase inhibition profiling FMS(CSFR) (ELISA); format: biochemical
T9 construct: Cytoplasmic domain of human FMS [538-972 amino; made in house; host or cells: baculovirus expression system
Protocol: as §1

[10] = target: T10, PDGFRβ (Homo sapiens, UniProt P09619); assay: Kinase inhibition profiling PDGFRβ (ELISA); format: biochemical
T10 construct: Cytoplasmic domain of human PDGFRβ [557-1106 amino; made in house; host or cells: baculovirus expression system
Protocol: as §1

[11] = target: T11, BLK (Homo sapiens, UniProt P51451); assay: Kinase inhibition profiling BLK (ELISA); format: biochemical
T11 construct: made in house; host or cells: baculovirus expression system
Protocol: as §1

[12] = target: T12, FYN (Homo sapiens, UniProt P06241); assay: Kinase inhibition profiling FYN (ELISA); format: biochemical; note: ATP 20 µM
T12 construct: made in house; host or cells: baculovirus expression system
Protocol: (§2) In particular, the target kinases were Tyrosine kinases and Serine/Threonine kinases.
as §1

[13] = target: T13, LCK (Homo sapiens, UniProt P06239); assay: Kinase inhibition profiling LCK (ELISA); format: biochemical
T13 construct: made in house; host or cells: baculovirus expression system
Protocol: as §2, §1

[14] = target: T14, SRM (Homo sapiens, UniProt Q9H3Y6); assay: Kinase inhibition profiling SRM (ELISA); format: biochemical
T14 construct: Kinase domain (KD) of human SRM [215-489 amino acids; made in house; host or cells: baculovirus expression system
Protocol: as §1

[15] = target: T15, FLT1 (Homo sapiens, UniProt P17948); assay: Kinase inhibition profiling FLT1 (ELISA); format: biochemical; note: ATP 20 µM
T15 construct: Cytoplasmic domain of human FLT1 [781-1338 amino; made in house; host or cells: baculovirus expression system
Protocol: as §2, §1

[16] = target: T16, PKACα (Homo sapiens, UniProt P17612); assay: Kinase inhibition profiling PKACα (IMAP); format: biochemical
T16 construct: made in house; host or cells: baculovirus expression system
Protocol: as §2, §1

[17] = target: T17, PKCα (Homo sapiens, UniProt P17252); assay: Kinase inhibition profiling PKCα (IMAP); format: biochemical
T17 construct: made in house; host or cells: baculovirus expression system
Protocol: as §1

[18] = target: T18, PKCγ (Homo sapiens, UniProt P05129); assay: Kinase inhibition profiling PKCγ (IMAP); format: biochemical
T18 construct: made in house; host or cells: baculovirus expression system
Protocol: as §1

[19] = target: T19, CHK1 (Homo sapiens, UniProt O14757); assay: Kinase inhibition profiling CHK1 (IMAP); format: biochemical
T19 construct: His (N); made in house; host or cells: baculovirus expression system
Protocol: as §1

[20] = target: T20, CHK2 (Homo sapiens, UniProt O96017); assay: Kinase inhibition profiling CHK2 (IMAP); format: biochemical
T20 construct: His (N); made in house; host or cells: baculovirus expression system
Protocol: as §1

[21] = target: T21, JNK2 (Homo sapiens, UniProt P45984); assay: Kinase inhibition profiling JNK2 (ELISA); format: biochemical; note: ATP 5 µM
T21 construct: Human JNK2 containing 424 amino acids was expressed; His (C); made in house; host or cells: E. coli
Protocol: as §1

[22] = target: T22, AurA (Homo sapiens, UniProt O14965); assay: Kinase inhibition profiling AurA (IMAP); format: biochemical
T22 construct: GST (N); made in house; host or cells: baculovirus expression system
Protocol: as §1

[23] = target: T23, IKKβ (Homo sapiens, UniProt O14920); assay: Kinase inhibition profiling IKKβ (IMAP); format: biochemical
T23 construct: Human IKKβ with 662 amino acids were expressed; His (N); made in house; host or cells: insect cells
Protocol: as §1

[24] = target: T24, IRAK4 (Homo sapiens, UniProt Q9NWZ3); assay: Kinase inhibition profiling IRAK4 (IMAP); format: biochemical; note: ATP 80 µM
T24 construct: Kinase domain (KD) of Human IRAK4 [172-460 amino; GST (N); made in house; host or cells: baculovirus expression system
Protocol: as §1

[25] = test system: bovine aorta smooth muscle cells (BASMC); assay: Chemotaxis assay, HMGB1-induced migration (modified Boyden chambers); format: cell-based; conditions: K-252a 3, 10, 30, 100 nM; HMGB-1 25 ng/ml; overnight migration
Protocol: Chemotaxis assays were performed using a well known and validated protocol (1). Modified Boyden chambers were used with filters having 5-8 μm pore size and treated with collagen I (100 μg/ml in 0.5 M acetic acid) and fibronectin (10 μg/ml, Roche). BASMC (bovine aorta smooth muscle cells) were cultured in serum-free DMEM and a sample of 20,000-40,000 cells was added to the upper well of a Boyden chamber. […] Overnight cell migration was allowed at 37+/−0.5° C., then cells were scraped off and filters were fixed in methanol and stained in a solution of 10% crystal violet in 20% methanol. All experiments were performed at least twice in triplicate. […] Random cell migration, i.e. migration in the absence of chemoattractant, was given the arbitrary value of 100%. Statistical analysis was performed using Student's t test for pairwise comparisons of treatment, or an ANOVA model for the evaluation of treatments with increasing concentrations of a reagent.

[26] = target: T25, HMGB1 (Homo sapiens, UniProt P09429); assay: Fluorescence assays of K-252a/HMGB1 interaction; format: binding
T25 construct: host or cells: bacteria (inferred from the mention of bacterial contaminants)

T7 sequence (P52333 795-1124): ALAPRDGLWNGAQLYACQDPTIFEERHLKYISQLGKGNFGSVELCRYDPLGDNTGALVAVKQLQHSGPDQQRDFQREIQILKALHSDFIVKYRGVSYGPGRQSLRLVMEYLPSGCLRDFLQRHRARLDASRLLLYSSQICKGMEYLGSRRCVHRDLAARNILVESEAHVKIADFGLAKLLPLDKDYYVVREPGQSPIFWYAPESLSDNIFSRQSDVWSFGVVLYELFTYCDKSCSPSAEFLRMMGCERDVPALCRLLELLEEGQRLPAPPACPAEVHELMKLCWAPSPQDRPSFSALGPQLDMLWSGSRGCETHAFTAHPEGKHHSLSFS
T4 sequence (Q15303 676-1308): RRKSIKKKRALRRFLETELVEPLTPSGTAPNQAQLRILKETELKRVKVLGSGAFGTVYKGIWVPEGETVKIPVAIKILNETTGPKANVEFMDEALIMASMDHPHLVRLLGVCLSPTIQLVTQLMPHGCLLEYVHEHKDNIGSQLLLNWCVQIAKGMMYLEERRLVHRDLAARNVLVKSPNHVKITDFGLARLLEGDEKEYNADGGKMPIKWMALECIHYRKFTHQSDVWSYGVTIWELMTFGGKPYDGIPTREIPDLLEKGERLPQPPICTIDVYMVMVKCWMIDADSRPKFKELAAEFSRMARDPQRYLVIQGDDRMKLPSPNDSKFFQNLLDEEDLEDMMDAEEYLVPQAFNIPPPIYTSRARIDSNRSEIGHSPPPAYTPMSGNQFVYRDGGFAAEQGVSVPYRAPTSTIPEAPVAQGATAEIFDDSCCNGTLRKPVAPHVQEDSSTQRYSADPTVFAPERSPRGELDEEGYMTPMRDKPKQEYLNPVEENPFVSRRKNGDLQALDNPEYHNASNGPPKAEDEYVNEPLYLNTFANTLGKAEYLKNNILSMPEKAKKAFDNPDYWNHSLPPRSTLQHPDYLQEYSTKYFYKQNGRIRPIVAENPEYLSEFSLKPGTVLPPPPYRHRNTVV
T23 sequence (O14920 1-662 limits assumed): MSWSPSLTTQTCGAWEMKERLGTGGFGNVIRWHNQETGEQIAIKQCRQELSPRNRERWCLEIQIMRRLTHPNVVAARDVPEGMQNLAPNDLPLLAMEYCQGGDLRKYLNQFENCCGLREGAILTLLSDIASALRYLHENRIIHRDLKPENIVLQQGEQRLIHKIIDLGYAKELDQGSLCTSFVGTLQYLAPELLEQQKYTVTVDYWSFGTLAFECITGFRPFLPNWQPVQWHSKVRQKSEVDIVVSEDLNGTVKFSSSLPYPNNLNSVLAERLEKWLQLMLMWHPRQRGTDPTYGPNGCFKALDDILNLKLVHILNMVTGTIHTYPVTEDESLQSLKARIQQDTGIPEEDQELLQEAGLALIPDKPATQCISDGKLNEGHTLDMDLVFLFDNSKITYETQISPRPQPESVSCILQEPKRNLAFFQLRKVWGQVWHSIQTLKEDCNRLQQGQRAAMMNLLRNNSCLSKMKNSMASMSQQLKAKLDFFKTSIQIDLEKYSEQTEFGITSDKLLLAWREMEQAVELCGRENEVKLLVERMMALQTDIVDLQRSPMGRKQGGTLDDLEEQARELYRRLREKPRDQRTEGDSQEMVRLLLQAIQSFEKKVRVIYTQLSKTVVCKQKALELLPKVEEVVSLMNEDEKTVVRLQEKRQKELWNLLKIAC
T19 sequence (O14757 whole entry): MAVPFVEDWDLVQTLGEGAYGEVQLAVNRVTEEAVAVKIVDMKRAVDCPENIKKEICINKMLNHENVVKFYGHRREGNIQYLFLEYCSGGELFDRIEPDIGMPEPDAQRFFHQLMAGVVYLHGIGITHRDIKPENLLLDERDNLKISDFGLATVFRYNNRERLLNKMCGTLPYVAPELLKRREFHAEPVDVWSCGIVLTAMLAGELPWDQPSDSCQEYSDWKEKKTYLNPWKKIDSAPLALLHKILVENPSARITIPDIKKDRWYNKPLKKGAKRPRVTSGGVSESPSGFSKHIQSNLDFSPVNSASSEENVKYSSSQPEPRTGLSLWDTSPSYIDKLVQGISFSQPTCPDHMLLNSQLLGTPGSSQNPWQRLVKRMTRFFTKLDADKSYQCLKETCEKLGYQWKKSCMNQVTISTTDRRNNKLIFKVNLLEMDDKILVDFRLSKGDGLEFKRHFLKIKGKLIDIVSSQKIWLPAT
T6 sequence (P23458 850-1154): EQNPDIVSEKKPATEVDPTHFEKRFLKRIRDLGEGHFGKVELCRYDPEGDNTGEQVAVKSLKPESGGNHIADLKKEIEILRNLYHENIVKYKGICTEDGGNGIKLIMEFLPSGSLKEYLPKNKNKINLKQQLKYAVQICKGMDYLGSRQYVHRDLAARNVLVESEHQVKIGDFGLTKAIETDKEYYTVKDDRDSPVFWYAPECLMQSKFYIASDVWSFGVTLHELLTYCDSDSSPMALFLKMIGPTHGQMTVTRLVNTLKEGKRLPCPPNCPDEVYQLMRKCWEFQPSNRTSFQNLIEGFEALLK
T24 sequence (Q9NWZ3 172-460): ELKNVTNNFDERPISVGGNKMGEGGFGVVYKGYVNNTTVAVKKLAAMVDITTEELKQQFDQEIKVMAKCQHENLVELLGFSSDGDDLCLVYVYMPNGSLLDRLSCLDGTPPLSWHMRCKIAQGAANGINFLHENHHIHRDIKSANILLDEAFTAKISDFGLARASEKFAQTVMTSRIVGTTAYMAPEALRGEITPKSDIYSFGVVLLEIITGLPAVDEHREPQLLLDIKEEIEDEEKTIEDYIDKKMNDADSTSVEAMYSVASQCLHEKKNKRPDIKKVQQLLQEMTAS
T13 sequence (P06239 whole entry): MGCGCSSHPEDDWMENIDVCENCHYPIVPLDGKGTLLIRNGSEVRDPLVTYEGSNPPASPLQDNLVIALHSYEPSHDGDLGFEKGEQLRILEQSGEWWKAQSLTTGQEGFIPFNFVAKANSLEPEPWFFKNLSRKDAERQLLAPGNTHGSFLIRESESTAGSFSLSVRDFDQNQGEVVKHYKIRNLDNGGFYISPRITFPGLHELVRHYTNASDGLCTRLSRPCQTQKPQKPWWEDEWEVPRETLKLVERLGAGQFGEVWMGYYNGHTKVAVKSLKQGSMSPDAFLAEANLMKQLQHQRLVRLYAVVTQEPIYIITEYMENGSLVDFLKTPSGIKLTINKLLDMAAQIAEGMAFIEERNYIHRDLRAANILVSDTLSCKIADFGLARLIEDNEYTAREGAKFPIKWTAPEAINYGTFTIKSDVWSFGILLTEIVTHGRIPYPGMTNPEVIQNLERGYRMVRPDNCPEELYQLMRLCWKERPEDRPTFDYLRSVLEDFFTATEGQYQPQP
T5 sequence (P08069 959-1367): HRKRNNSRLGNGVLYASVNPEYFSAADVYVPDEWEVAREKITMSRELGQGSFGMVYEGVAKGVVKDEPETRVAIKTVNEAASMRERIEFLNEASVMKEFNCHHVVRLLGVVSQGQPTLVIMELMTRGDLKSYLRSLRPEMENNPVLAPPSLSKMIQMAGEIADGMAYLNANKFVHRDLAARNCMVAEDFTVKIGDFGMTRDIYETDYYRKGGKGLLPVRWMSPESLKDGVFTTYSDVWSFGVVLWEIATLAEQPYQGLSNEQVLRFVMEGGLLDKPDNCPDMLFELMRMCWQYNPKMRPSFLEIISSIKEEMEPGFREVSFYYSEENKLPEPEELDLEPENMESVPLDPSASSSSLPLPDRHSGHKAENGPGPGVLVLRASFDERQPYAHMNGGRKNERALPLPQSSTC

## COC(=O)[C@]1(O)CC2O[C@@]1(C)n1c3ccccc3c3c4c(c5c6ccccc6n2c5c31)C(=O)NC4 [K-252a]
[1]
  inhibition at 0.2 µM: 0.1%
[2]
  inhibition at 0.2 µM: 69.5%
[3]
  inhibition at 0.2 µM: 16.4%
[4]
  inhibition at 0.2 µM: 39.4%
[5]
  inhibition at 0.2 µM: 40.6%
[6]
  inhibition at 0.2 µM: 83.1%
[7]
  inhibition at 0.2 µM: 100%
[8]
  inhibition at 0.2 µM: 98.1%
[9]
  inhibition at 0.2 µM: 55.7%
[10]
  inhibition at 0.2 µM: 98.1%
[11]
  inhibition at 0.2 µM: 83.5%
[12]
  inhibition at 0.2 µM: 67.2%
[13]
  inhibition at 0.2 µM: 65.2%
[14]
  inhibition at 0.2 µM: 0.4%
[15]
  inhibition at 0.2 µM: 73.9%
[16]
  inhibition at 0.2 µM: 69.4%
[17]
  inhibition at 0.2 µM: 64.4%
[18]
  inhibition at 0.2 µM: 53.3%
[19]
  inhibition at 0.2 µM: 92.8%
[20]
  inhibition at 0.2 µM: 93.9%
[21]
  inhibition at 0.2 µM: 91.4%
[22]
  inhibition at 0.2 µM: 91.9%
[23]
  inhibition at 0.2 µM: 2.7%
[24]
  inhibition at 0.2 µM: 51.9%
[25]
  HMGB1-induced BASMC cell migration: actively and concentration-dependently (in a nanomolar range) antagonizes HMGB1-induced BASMC cell migration
[26]
  direct interaction between K-252a and HMGB1: absence of a direct interaction
